Several values for one entry are separate records, joined by “and”; a condition that tells them apart may be missing. Equal values may be shown once. Toxic doses and inconclusive results are not listed. No stated cut-off is given here; in the data, active means T/C of 150% or more; inactive means T/C below 125%.
Tested on: L1210 leukemia ip in BDF1 mice, survival T/C
Test: NCI In Vivo Anticancer Drug Screen. Data for tumor model L1210 Leukemia (intraperitoneal) in B6D2F1 (BDF1) mice
Conditions: higher = longer survival
Protocol: The antitumor activity of compounds was measured in mice bearing transplantable tumors. Survival or tumor size were measured and the results are expressed as the measurement made in the treated group (T) divided by the measurement made in the vehicle treated control group (C). The tumor model used in this assay is L1210 Leukemia (intraperitoneal) in B6D2F1 (BDF1) mice

[1] = endpoint: mean survival time, dose: 100.0 mg/kg/injection, schedule: Q04DX002 (ip), vehicle: saline with Tween-80
[2] = endpoint: mean survival time, dose: 200.0 mg/kg/injection, schedule: Q01DX009 (ip), vehicle: Klucel (hydroxypropylcellulose) (HPC)
[3] = endpoint: mean survival time, dose: 100.0 mg/kg/injection, schedule: Q01DX001 (ip), vehicle: carboxymethylcellulose (CMC)
[4] = endpoint: mean survival time, dose: 200.0 mg/kg/injection, schedule: Q01DX001 (ip), vehicle: carboxymethylcellulose (CMC)
[5] = endpoint: mean survival time, dose: 400.0 mg/kg/injection, schedule: Q01DX001 (ip), vehicle: carboxymethylcellulose (CMC)

Measured: T/C

Oc1ccc2ccccc2c1N=Nc1ccccn1
inactive: endpoint: mean survival time, dose: 25.0 mg/kg/injection, schedule: Q04DX002 (ip), vehicle: saline with Tween-80 101 % of control | endpoint: mean survival time, dose: 50.0 mg/kg/injection, schedule: Q04DX002 (ip), vehicle: saline with Tween-80 98 % of control | [1] 95 % of control

Cc1ccc(C)c(NC(=O)Oc2ccc(Br)cc2Br)c1
inactive: endpoint: mean survival time, dose: 25.0 mg/kg/injection, schedule: Q01DX009 (ip), vehicle: Klucel (hydroxypropylcellulose) (HPC) 92 % of control | endpoint: mean survival time, dose: 50.0 mg/kg/injection, schedule: Q01DX009 (ip), vehicle: Klucel (hydroxypropylcellulose) (HPC) 94 % of control | endpoint: mean survival time, dose: 100.0 mg/kg/injection, schedule: Q04DX003 (ip), vehicle: Klucel (hydroxypropylcellulose) (HPC) 94 % of control | [2] 93 % of control and 114 % of control | endpoint: mean survival time, dose: 200.0 mg/kg/injection, schedule: Q04DX003 (ip), vehicle: Klucel (hydroxypropylcellulose) (HPC) 87 % of control | endpoint: mean survival time, dose: 400.0 mg/kg/injection, schedule: Q04DX003 (ip), vehicle: Klucel (hydroxypropylcellulose) (HPC) 110 % of control

COC1CCC(/C=C(\C#N)C2CCC(C)CC2)CC1 (centres undefined)
inactive: [1] 94 % of control | endpoint: mean survival time, dose: 200.0 mg/kg/injection, schedule: Q04DX002 (ip), vehicle: saline with Tween-80 97 % of control | endpoint: mean survival time, dose: 400.0 mg/kg/injection, schedule: Q04DX002 (ip), vehicle: saline with Tween-80 94 % of control

CCCCCCCC[Si](C)(C)C
inactive: endpoint: mean survival time, dose: 100.0 mg/kg/injection, schedule: Q01DX001 (ip), vehicle: saline 100 % of control | endpoint: mean survival time, dose: 200.0 mg/kg/injection, schedule: Q01DX001 (ip), vehicle: saline 97 % of control | endpoint: mean survival time, dose: 400.0 mg/kg/injection, schedule: Q01DX001 (ip), vehicle: saline 115 % of control

Oc1ccc2ccccc2c1N=Nc1ccc(F)cc1
inactive: endpoint: mean survival time, dose: 25.0 mg/kg/injection, schedule: Q01DX015 (ip), vehicle: saline 101 % of control | endpoint: mean survival time, dose: 50.0 mg/kg/injection, schedule: Q01DX015 (ip), vehicle: saline 96 % of control | endpoint: mean survival time, dose: 60.0 mg/kg/injection, schedule: Q01DX015 (ip), vehicle: carboxymethylcellulose (CMC) 109 % of control | [3] 92 % of control | endpoint: mean survival time, dose: 100.0 mg/kg/injection, schedule: Q01DX009 (ip), vehicle: carboxymethylcellulose (CMC) 95 % of control | endpoint: mean survival time, dose: 100.0 mg/kg/injection, schedule: Q01DX015 (ip), vehicle: saline 96 % of control | endpoint: mean survival time, dose: 100.0 mg/kg/injection, schedule: Q04DX003 (ip), vehicle: carboxymethylcellulose (CMC) 114 % of control | endpoint: mean survival time, dose: 120.0 mg/kg/injection, schedule: Q01DX015 (ip), vehicle: carboxymethylcellulose (CMC) 104 % of control | [4] 92 % of control | endpoint: mean survival time, dose: 200.0 mg/kg/injection, schedule: Q01DX009 (ip), vehicle: carboxymethylcellulose (CMC) 95 % of control | endpoint: mean survival time, dose: 200.0 mg/kg/injection, schedule: Q01DX015 (ip), vehicle: saline 101 % of control | endpoint: mean survival time, dose: 200.0 mg/kg/injection, schedule: Q04DX003 (ip), vehicle: carboxymethylcellulose (CMC) 97 % of control | endpoint: mean survival time, dose: 240.0 mg/kg/injection, schedule: Q01DX015 (ip), vehicle: carboxymethylcellulose (CMC) 95 % of control | [5] 89 % of control | endpoint: mean survival time, dose: 400.0 mg/kg/injection, schedule: Q01DX015 (ip), vehicle: saline 101 % of control | endpoint: mean survival time, dose: 400.0 mg/kg/injection, schedule: Q04DX003 (ip), vehicle: carboxymethylcellulose (CMC) 100 % of control | endpoint: mean survival time, dose: 480.0 mg/kg/injection, schedule: Q01DX015 (ip), vehicle: carboxymethylcellulose (CMC) 96 % of control

CC1OC(OC2C(O)CC(OC3C(O)CC(OC4CCC5(C)C(CCC6C5CCC5(C)C(C7=CC(=O)OC7)CCC65O)C4)OC3C)OC2C)CC(O)C1O (centres undefined)
inactive: endpoint: mean survival time, dose: 1.0 mg/kg/injection, schedule: Q01DX015 (sc), vehicle: steriod suspending solution 93 % of control | endpoint: mean survival time, dose: 2.0 mg/kg/injection, schedule: Q01DX015 (sc), vehicle: steriod suspending solution 98 % of control | endpoint: mean survival time, dose: 4.0 mg/kg/injection, schedule: Q01DX015 (sc), vehicle: steriod suspending solution 101 % of control | endpoint: mean survival time, dose: 8.0 mg/kg/injection, schedule: Q01DX015 (sc), vehicle: steriod suspending solution 102 % of control | endpoint: mean survival time, dose: 10.0 mg/kg/injection, schedule: Q01DX001 (ip), vehicle: saline 106 % of control | endpoint: mean survival time, dose: 16.0 mg/kg/injection, schedule: Q01DX015 (sc), vehicle: steriod suspending solution 105 % of control | endpoint: mean survival time, dose: 20.0 mg/kg/injection, schedule: Q01DX001 (ip), vehicle: saline 105 % of control | endpoint: mean survival time, dose: 32.0 mg/kg/injection, schedule: Q01DX015 (sc), vehicle: steriod suspending solution 101 % of control | endpoint: mean survival time, dose: 40.0 mg/kg/injection, schedule: Q01DX001 (ip), vehicle: saline 103 % of control | endpoint: median survival time, dose: 0.5 mg/kg/injection, schedule: Q01DX005 (iv), vehicle: water 99 % of control | endpoint: median survival time, dose: 0.5 mg/kg/injection, schedule: Q01DX010 (ip), vehicle: methylcellulose (MC) 91 % of control | endpoint: median survival time, dose: 0.5 mg/kg/injection, schedule: Q01DX010 (ip), vehicle: water 99 % of control and 100 % of control | endpoint: median survival time, dose: 1.0 mg/kg/injection, schedule: Q01DX005 (iv), vehicle: water 99 % of control | endpoint: median survival time, dose: 1.0 mg/kg/injection, schedule: Q01DX010 (ip), vehicle: methylcellulose (MC) 102 % of control | endpoint: median survival time, dose: 1.0 mg/kg/injection, schedule: Q01DX010 (ip), vehicle: water 99 % of control and 100 % of control | endpoint: median survival time, dose: 1.0 mg/kg/injection, schedule: Q04DX003 (ip), vehicle: water 99 % of control and 100 % of control | endpoint: median survival time, dose: 1.0 mg/kg/injection, schedule: Q04DX003 (iv), vehicle: water 96 % of control | endpoint: median survival time, dose: 2.0 mg/kg/injection, schedule: Q01DX005 (ip), vehicle: water 95 % of control | endpoint: median survival time, dose: 2.0 mg/kg/injection, schedule: Q01DX005 (iv), vehicle: water 100 % of control | endpoint: median survival time, dose: 2.0 mg/kg/injection, schedule: Q01DX010 (ip), vehicle: methylcellulose (MC) 104 % of control | endpoint: median survival time, dose: 2.0 mg/kg/injection, schedule: Q01DX010 (ip), vehicle: water 105 % of control and 111 % of control | endpoint: median survival time, dose: 2.0 mg/kg/injection, schedule: Q04DX003 (ip), vehicle: water 95 % of control | endpoint: median survival time, dose: 2.0 mg/kg/injection, schedule: Q04DX003 (iv), vehicle: water 92 % of control | endpoint: median survival time, dose: 4.0 mg/kg/injection, schedule: Q01DX005 (ip), vehicle: water 109 % of control | endpoint: median survival time, dose: 4.0 mg/kg/injection, schedule: Q01DX005 (iv), vehicle: water 106 % of control | endpoint: median survival time, dose: 4.0 mg/kg/injection, schedule: Q01DX010 (ip), vehicle: methylcellulose (MC) 103 % of control | endpoint: median survival time, dose: 4.0 mg/kg/injection, schedule: Q01DX010 (ip), vehicle: water 102 % of control and 105 % of control | endpoint: median survival time, dose: 4.0 mg/kg/injection, schedule: Q04DX003 (ip), vehicle: water 100 % of control | endpoint: median survival time, dose: 4.0 mg/kg/injection, schedule: Q04DX003 (iv), vehicle: water 93 % of control | endpoint: median survival time, dose: 8.0 mg/kg/injection, schedule: Q01DX005 (ip), vehicle: water 113 % of control | endpoint: median survival time, dose: 8.0 mg/kg/injection, schedule: Q01DX005 (iv), vehicle: water 86 % of control | endpoint: median survival time, dose: 8.0 mg/kg/injection, schedule: Q01DX010 (ip), vehicle: water 102 % of control and 105 % of control | endpoint: median survival time, dose: 8.0 mg/kg/injection, schedule: Q04DX003 (ip), vehicle: water 86 % of control | endpoint: median survival time, dose: 8.0 mg/kg/injection, schedule: Q04DX003 (iv), vehicle: water 93 % of control | endpoint: median survival time, dose: 16.0 mg/kg/injection, schedule: Q01DX010 (ip), vehicle: water 93 % of control and 94 % of control | endpoint: median survival time, dose: 16.0 mg/kg/injection, schedule: Q04DX003 (ip), vehicle: water 93 % of control | endpoint: median survival time, dose: 16.0 mg/kg/injection, schedule: Q04DX003 (iv), vehicle: water 68 % of control

NNc1ncnc(SCc2ccccc2)c1N
inactive: endpoint: mean survival time, dose: 50.0 mg/kg/injection, schedule: Q01DX001 (ip), vehicle: carboxymethylcellulose (CMC) 93 % of control | [3] 98 % of control | [4] 89 % of control | [5] 89 % of control

CC(/C=C/C=C/c1ccccc1)=N\O
inactive: endpoint: mean survival time, dose: 100.0 mg/kg/injection, schedule: Q01DX009 (ip), vehicle: Klucel (hydroxypropylcellulose) (HPC) 98 % of control | [2] 90 % of control | endpoint: mean survival time, dose: 400.0 mg/kg/injection, schedule: Q01DX009 (ip), vehicle: Klucel (hydroxypropylcellulose) (HPC) 96 % of control

O=P(O)(c1cc(Cl)cc(Cl)c1)c1cc(Cl)cc(Cl)c1
inactive: endpoint: mean survival time, dose: 18.8 mg/kg/injection, schedule: Q01DX001 (ip), vehicle: saline 96 % of control | endpoint: mean survival time, dose: 37.5 mg/kg/injection, schedule: Q01DX001 (ip), vehicle: saline 96 % of control | endpoint: mean survival time, dose: 75.0 mg/kg/injection, schedule: Q01DX001 (ip), vehicle: saline 96 % of control

From PubChem BioAssay AID248 (DTP/NCI, 2004)
